The source of these data is ChEMBL document CHEMBL1148004, “Synthesis, characterization and antiamoebic activity of new indole-3-carboxaldehyde thiosemicarbazones and their Pd(II) complexes” (Eur J Med Chem, 2007).

The test system of this assay is Entamoeba histolytica. The assay can be described thus: Antiamoebic activity against Entamoeba histolytica HM1:IMSS by microdilution method. The class given is functional, organism-based.

`S=C(N/N=C\c1c[nH]c2ccccc12)NC1CCCCCCC1`: 6.08 µM corresponded to half-maximal inhibition (IC50). In other words, the single-digit micromolar range.
As to `CC1CCN(C(=S)N/N=C\c2c[nH]c3ccccc23)CC1`, the IC50 (usually the midpoint of a concentration-inhibition curve) was found to be 8.37 µM.
On to `S=C(N/N=C\c1c[nH]c2ccccc12)NC1C2CC3CC(C2)CC1C3` (configuration not stated), for which the half-maximal inhibitory concentration (IC50) was 1.08 µM.
Regarding `S=C(N/N=C\c1c[nH]c2ccccc12)N1CCCC1`, the IC50 came out at 14.6 µM.
`S=C(N/N=C\c1c[nH]c2ccccc12)N1CCN(c2ccccc2)CC1` registered an IC50 of 3.09 µM.
Regarding `S=C(N/N=C\c1c[nH]c2ccccc12)NC1CCCC1`, 13.9 µM corresponded to half-maximal inhibition (IC50).
`S=C(N/N=C\c1c[nH]c2ccccc12)N1CCCc2ccccc21`: the IC50 came to 1.68 µM.
